{"source": "ChEMBL document CHEMBL5055672", "about": "“Design, Synthesis, Biological Evaluation, and Computational Studies of Novel Fluorinated Candidates as PI3K Inhibitors: Targeting Fluorophilic Binding Sites” (J Med Chem, 2021)", "key": {"CCRF-CEM": {"test_system": "CCRF-CEM", "assay": "Cytotoxicity against human CCRF-CEM cells assessed as growth inhibition at 10 uM after 48 hrs by sulforhodamine B assay", "assay_type": "functional", "settings": "read-out: GI"}, "Malme-3M": {"test_system": "Malme-3M", "assay": "Cytotoxicity against human MALME-3M cells assessed as growth inhibition at 10 uM after 48 hrs by sulforhodamine B assay", "assay_type": "functional", "settings": "read-out: GI"}, "UO-31": {"test_system": "UO-31", "assay": "Cytotoxicity against human UO-31 cells assessed as growth inhibition at 10 uM after 48 hrs by sulforhodamine B assay", "assay_type": "functional", "settings": "read-out: GI"}, "BT-549": {"test_system": "BT-549", "assay": "Cytotoxicity against human BT-549 cells assessed as growth inhibition at 10 uM after 48 hrs by sulforhodamine B assay", "assay_type": "functional", "settings": "read-out: GI"}, "UACC-257": {"test_system": "UACC-257", "assay": "Cytotoxicity against human UACC-257 cells assessed as growth inhibition at 10 uM after 48 hrs by sulforhodamine B assay", "assay_type": "functional", "settings": "read-out: GI"}, "MCF7 [1]": {"test_system": "MCF7", "assay": "Cytotoxicity against human MCF7 cells assessed as growth inhibition at 10 uM after 48 hrs by sulforhodamine B assay", "assay_type": "functional", "settings": "read-out: GI"}, "K562": {"test_system": "K562", "assay": "Cytotoxicity against human K562 cells assessed as growth inhibition at 10 uM after 48 hrs by sulforhodamine B assay", "assay_type": "functional", "settings": "read-out: GI"}, "MOLT-4": {"test_system": "MOLT-4", "assay": "Cytotoxicity against human MOLT-4 cells assessed as growth inhibition at 10 uM after 48 hrs by sulforhodamine B assay", "assay_type": "functional", "settings": "read-out: GI"}, "SR": {"test_system": "SR", "assay": "Cytotoxicity against human SR cells assessed as growth inhibition at 10 uM after 48 hrs by sulforhodamine B assay", "assay_type": "functional", "settings": "read-out: GI"}, "HOP-62": {"test_system": "HOP-62", "assay": "Cytotoxicity against human HOP-62 cells assessed as growth inhibition at 10 uM after 48 hrs by sulforhodamine B assay", "assay_type": "functional", "settings": "read-out: GI"}, "SF-268": {"test_system": "SF-268", "assay": "Cytotoxicity against human SF-268 cells assessed as growth inhibition at 10 uM after 48 hrs by sulforhodamine B assay", "assay_type": "functional", "settings": "read-out: GI"}, "SF-539": {"test_system": "SF-539", "assay": "Cytotoxicity against human SF-539 cells assessed as growth inhibition at 10 uM after 48 hrs by sulforhodamine B assay", "assay_type": "functional", "settings": "read-out: GI"}, "SNB-19": {"test_system": "SNB-19", "assay": "Cytotoxicity against human SNB-19 cells assessed as growth inhibition at 10 uM after 48 hrs by sulforhodamine B assay", "assay_type": "functional", "settings": "read-out: GI"}, "U-251": {"test_system": "U-251", "assay": "Cytotoxicity against human U-251 cells assessed as growth inhibition at 10 uM after 48 hrs by sulforhodamine B assay", "assay_type": "functional", "settings": "read-out: GI"}, "UACC-62": {"test_system": "UACC-62", "assay": "Cytotoxicity against human UACC-62 cells assessed as growth inhibition at 10 uM after 48 hrs by sulforhodamine B assay", "assay_type": "functional", "settings": "read-out: GI"}, "CAKI-1": {"test_system": "CAKI-1", "assay": "Cytotoxicity against human CAKI-1 cells assessed as growth inhibition at 10 uM after 48 hrs by sulforhodamine B assay", "assay_type": "functional", "settings": "read-out: GI"}, "MDA-MB-231": {"test_system": "MDA-MB-231", "assay": "Cytotoxicity against human MDA-MB-231 cells assessed as growth inhibition at 10 uM after 48 hrs by sulforhodamine B assay", "assay_type": "functional", "settings": "read-out: GI"}, "[2]": {"assay": "Cytotoxicity against human Hs 578T cells assessed as growth inhibition at 10 uM after 48 hrs by sulforhodamine B assay", "assay_type": "functional", "settings": "read-out: GI"}, "HL-60(TB)": {"test_system": "HL-60(TB)", "assay": "Cytotoxicity against human HL-60(TB) cells assessed as growth inhibition at 10 uM after 48 hrs by sulforhodamine B assay", "assay_type": "functional", "settings": "read-out: GI"}, "NCI-H522": {"test_system": "NCI-H522", "assay": "Cytotoxicity against human NCI-H522 cells assessed as growth inhibition at 10 uM after 48 hrs by sulforhodamine B assay", "assay_type": "functional", "settings": "read-out: GI"}, "MCF7 [3]": {"test_system": "MCF7", "assay": "Antiproliferative activity against human MCF7 cells assessed as inhibition of cell growth incubated for 48 hrs by MTT assay", "assay_type": "functional, cell-based", "settings": "MCF7, 48 h"}, "MCF-10A": {"test_system": "MCF-10A", "assay": "Cytotoxicity against human MCF10A cells assessed as inhibition of cell growth incubated for 48 hrs by MTT assay", "assay_type": "cell-based"}, "[4]": {"assay": "Selectivity index, ratio of IC50 for human MCF-10A cells to IC50 for human MCF7 cells", "assay_type": "toxicity", "settings": "MCF-10A cells versus MCF7 cells, read-out: Ratio IC50"}, "[5]": {"biological_target": "T1, Phosphatidylinositol 4,5-bisphosphate 3-kinase catalytic subunit delta isoform (Homo sapiens, UniProt O00329)", "T1 sequence (O00329 whole entry)": "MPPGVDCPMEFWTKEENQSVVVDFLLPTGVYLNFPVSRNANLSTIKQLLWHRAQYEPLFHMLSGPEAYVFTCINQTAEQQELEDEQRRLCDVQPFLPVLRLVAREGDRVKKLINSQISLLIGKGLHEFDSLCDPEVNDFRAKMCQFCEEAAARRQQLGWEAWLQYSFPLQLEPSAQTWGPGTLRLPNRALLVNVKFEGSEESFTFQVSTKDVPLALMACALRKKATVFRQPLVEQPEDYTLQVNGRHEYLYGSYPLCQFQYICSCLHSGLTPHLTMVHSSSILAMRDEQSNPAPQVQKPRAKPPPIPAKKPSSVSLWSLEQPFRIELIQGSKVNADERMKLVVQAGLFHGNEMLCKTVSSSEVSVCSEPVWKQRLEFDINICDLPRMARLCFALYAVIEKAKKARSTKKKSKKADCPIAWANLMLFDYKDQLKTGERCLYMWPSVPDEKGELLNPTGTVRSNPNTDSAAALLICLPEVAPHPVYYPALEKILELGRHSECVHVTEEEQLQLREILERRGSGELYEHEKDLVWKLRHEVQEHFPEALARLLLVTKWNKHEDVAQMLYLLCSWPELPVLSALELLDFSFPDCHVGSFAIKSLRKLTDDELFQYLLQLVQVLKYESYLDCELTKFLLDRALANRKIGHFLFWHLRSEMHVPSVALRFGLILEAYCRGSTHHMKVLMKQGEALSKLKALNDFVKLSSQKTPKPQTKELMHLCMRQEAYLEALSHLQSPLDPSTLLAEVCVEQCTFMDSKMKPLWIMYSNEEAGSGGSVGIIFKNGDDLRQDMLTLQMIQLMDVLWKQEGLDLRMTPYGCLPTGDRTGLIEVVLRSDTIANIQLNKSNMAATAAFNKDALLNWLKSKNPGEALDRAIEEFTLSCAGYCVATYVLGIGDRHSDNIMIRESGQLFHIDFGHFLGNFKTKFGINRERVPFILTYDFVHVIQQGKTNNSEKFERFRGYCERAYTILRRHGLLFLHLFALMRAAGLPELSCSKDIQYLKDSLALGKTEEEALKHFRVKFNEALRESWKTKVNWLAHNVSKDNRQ", "assay": "Inhibition of PI3Kdelta (unknown origin) using PIP2 as substrate preincubated for 10 mins followed by substrate addition and measured after 1 hr by ELISA"}}, "data": [{"molecule": "O=S(=O)(Oc1ccc(-c2nnc(Nc3ccccc3)s2)cc1)C(F)(F)C(F)(F)C(F)(F)C(F)(F)C(F)(F)C(F)(F)C(F)(F)C(F)(F)F", "values": [{"measurement": "inhibition of growth at 10 µM", "setting": "CCRF-CEM", "result": 12.1, "unit": "%"}, {"measurement": "inhibition of growth at 10 µM", "setting": "Malme-3M", "result": 11.7, "unit": "%"}, {"measurement": "inhibition of growth at 10 µM", "setting": "UO-31", "result": 19.4, "unit": "%"}, {"measurement": "inhibition of growth at 10 µM", "setting": "BT-549", "result": 12.9, "unit": "%"}]}, {"molecule": "O=S(=O)(Oc1ccc(/C=N/NC(=S)Nc2ccccc2)cc1)C(F)(F)C(F)(F)C(F)(F)C(F)(F)F", "values": [{"measurement": "inhibition of growth at 10 µM", "setting": "UACC-257", "result": 14.3, "unit": "%"}, {"measurement": "inhibition of growth at 10 µM", "setting": "UO-31", "result": 11.8, "unit": "%"}, {"measurement": "inhibition of growth at 10 µM", "setting": "MCF7 [1]", "result": 14.2, "unit": "%"}]}, {"molecule": "O=S(=O)(Oc1ccc(/C=N/N=c2\\scc(-c3ccccc3)n2-c2ccccc2)cc1)C(F)(F)C(F)(F)C(F)(F)C(F)(F)C(F)(F)C(F)(F)F", "values": [{"measurement": "inhibition of growth at 10 µM", "setting": "MCF7 [1]", "result": 43.5, "unit": "%"}]}, {"molecule": "COC(=O)/C=C1\\S/C(=N\\N=C\\c2ccc(OS(=O)(=O)C(F)(F)C(F)(F)C(F)(F)C(F)(F)C(F)(F)C(F)(F)F)cc2)N(c2ccccc2)C1=O", "values": [{"measurement": "inhibition of growth at 10 µM", "setting": "CCRF-CEM", "result": 22.7, "unit": "%"}, {"measurement": "inhibition of growth at 10 µM", "setting": "K562", "result": 39, "unit": "%"}, {"measurement": "inhibition of growth at 10 µM", "setting": "MOLT-4", "result": 13.4, "unit": "%"}, {"measurement": "inhibition of growth at 10 µM", "setting": "SR", "result": 32.7, "unit": "%"}, {"measurement": "inhibition of growth at 10 µM", "setting": "HOP-62", "result": 13.1, "unit": "%"}, {"measurement": "inhibition of growth at 10 µM", "setting": "SF-268", "result": 10.4, "unit": "%"}, {"measurement": "inhibition of growth at 10 µM", "setting": "SF-539", "result": 13.7, "unit": "%"}, {"measurement": "inhibition of growth at 10 µM", "setting": "SNB-19", "result": 26.4, "unit": "%"}, {"measurement": "inhibition of growth at 10 µM", "setting": "U-251", "result": 10.4, "unit": "%"}, {"measurement": "inhibition of growth at 10 µM", "setting": "UACC-62", "result": 17.6, "unit": "%"}, {"measurement": "inhibition of growth at 10 µM", "setting": "CAKI-1", "result": 28, "unit": "%"}, {"measurement": "inhibition of growth at 10 µM", "setting": "MDA-MB-231", "result": 12.8, "unit": "%"}, {"measurement": "inhibition of growth at 10 µM", "setting": "[2]", "result": 23.7, "unit": "%"}]}, {"molecule": "FC(F)(F)c1ccc(-c2nnc(Nc3ccccc3)s2)cc1", "values": [{"measurement": "inhibition of growth at 10 µM", "setting": "HL-60(TB)", "result": 26.2, "unit": "%"}, {"measurement": "inhibition of growth at 10 µM", "setting": "K562", "result": 13.7, "unit": "%"}, {"measurement": "inhibition of growth at 10 µM", "setting": "SR", "result": 24.9, "unit": "%"}, {"measurement": "inhibition of growth at 10 µM", "setting": "NCI-H522", "result": 11, "unit": "%"}, {"measurement": "inhibition of growth at 10 µM", "setting": "CAKI-1", "result": 11.7, "unit": "%"}, {"measurement": "inhibition of growth at 10 µM", "setting": "MCF7 [1]", "result": 11.4, "unit": "%"}]}, {"molecule": "COc1cc([C@@H]2c3cc4c(cc3[C@@H](O[C@@H]3O[C@@H]5CO[C@@H](C)O[C@H]5[C@H](O)[C@H]3O)[C@H]3COC(=O)[C@H]23)OCO4)cc(OC)c1O", "note": "[ETOPOSIDE]", "values": [{"measurement": "IC50", "setting": "MCF7 [3]", "result": 12.6, "unit": "µM"}, {"measurement": "IC50", "setting": "MCF-10A", "result": 84.7, "unit": "µM"}, {"measurement": "selectivity ratio", "setting": "[4]", "result": 3.86}]}, {"molecule": "COc1cccc2c1C(=O)c1c(O)c3c(c(O)c1C2=O)C[C@@](O)(C(=O)CO)C[C@@H]3O[C@H]1C[C@H](N)[C@H](O)[C@H](C)O1", "note": "[DOXORUBICIN]", "values": [{"measurement": "IC50", "setting": "MCF-10A", "result": 19, "unit": "µM"}]}, {"molecule": "FC(F)(F)COc1ccc(/C=N/N=c2\\scc(-c3ccccc3)n2-c2ccccc2)cc1", "values": [{"measurement": "inhibition of growth at 10 µM", "setting": "MCF7 [1]", "result": 53.4, "unit": "%"}]}, {"molecule": "O=c1cc(N2CCOCC2)oc2c(-c3ccccc3)cccc12", "note": "[LY-294002]", "values": [{"measurement": "IC50", "setting": "[5]", "result": 14.9, "unit": "µM"}]}]}
